Where only a bound is given, the exact number is not on record here.

Results on 7 compounds are retold here after ChEMBL document CHEMBL5614390, “Novel EGFR inhibitors against resistant L858R/T790M/C797S mutant for intervention of non-small cell lung cancer” (Eur J Med Chem, 2024).

One assay deals with NCI-H1975. Description: cells. The conditions noted are these: Homo sapiens, NCI-H1975, 72 h.
Assay [1] deals with PC-9. The experiment in a line: cells. The conditions noted are these: Homo sapiens, PC-9, 72 h.
Description: Cytotoxicity against human PC-9 cells expressing EGFR Del19 mutant assessed as inhibition of cell proliferation incubated for 72 hrs by CCK8 assay
For assay [2], the system named is PC-9. Description: cells. The conditions noted are these: Homo sapiens, PC-9, 72 h. This is another data set of the same source.
Description: Cytotoxicity against human PC-9 cells expressing EGFR L858R/T790M/C797S mutant assessed as inhibition of cell proliferation incubated for 72 hrs by CCK8 assay
Assay [3] relates to PC-9. The experiment in a line: cells. The conditions noted are these: Homo sapiens, PC-9, 72 h. This is another data set of the same source.
Description: Cytotoxicity against human PC-9 cells expressing EGFR Del19/T790M/C797S mutant assessed as inhibition of cell proliferation incubated for 72 hrs by CCK8 assay
A further assay has as its system MCF7. Description: cells. The conditions noted are these: Homo sapiens, MCF7, 72 h.
In the next assay the test system is A-431. Description: cells. The conditions noted are these: Homo sapiens, A-431, 72 h.
In the next assay the test system is HCC827. Description: cells. As to conditions: Homo sapiens, HCC827, 72 h.
For assay [4], the system named is PC-9. Description: Induction of apoptosis in human PC-9 cells expressing EGFR Del19/T790M/C797S mutant assessed as late apoptotic cells at 1 uM incubated for 48 hrs by Annexin V-FITC/PI staining based flow cytometric analysis (reference value: 0.040 %). It counts as functional.
Assay [5] deals with PC-9. The experiment in a line: Induction of apoptosis in human PC-9 cells expressing EGFR L858R/T790M/C797S mutant assessed as early apoptotic cells at 1 uM incubated for 48 hrs by Annexin V-FITC/PI staining based flow cytometric analysis (reference value: 0.210 %). It counts as functional. Background: A flow cytometer gives signals particle by particle.
Assay [6] relates to PC-9. Description: Induction of apoptosis in human PC-9 cells expressing EGFR Del19/T790M/C797S mutant assessed as viable cells at 1 uM incubated for 48 hrs by Annexin V-FITC/PI staining based flow cytometric analysis (reference value: 99.8 %). It counts as functional.
The test system of assay [7] is PC-9. The experiment in a line: Induction of apoptosis in human PC-9 cells expressing EGFR Del19/T790M/C797S mutant assessed as early apoptotic cells at 1 uM incubated for 48 hrs by Annexin V-FITC/PI staining based flow cytometric analysis (reference value: 0.050 %). The assay is classed as functional.
The subject of assay [8] is PC-9. Description: Antitumor activity against human PC-9 cells expressing EGFR L858R/T790M/C797S mutant xenografted in BALB/c nude mouse assessed as tumor growth inhibition at 40 mg/kg, po administered for 18 days relative to control. The assay is classed as functional. The conditions noted are these: time 18 day. A general note: A xenograft is tissue or cells of one species grown in another, often human tumour cells in immunodeficient mice.

Assay [9] concerns PC-9. The experiment in a line: Induction of apoptosis in human PC-9 cells expressing EGFR L858R/T790M/C797S mutant assessed as late apoptotic cells at 1 uM incubated for 48 hrs by Annexin V-FITC/PI staining based flow cytometric analysis (reference value: 0.360 %). The assay is classed as functional.
Assay [10] has as its system PC-9. The experiment in a line: Induction of apoptosis in human PC-9 cells expressing EGFR Del19/T790M/C797S mutant assessed as necrotic cells at 1 uM incubated for 48 hrs by Annexin V-FITC/PI staining based flow cytometric analysis (reference value: 0.090 %). It counts as functional.
Assay [11] concerns PC-9. The experiment in a line: Induction of apoptosis in human PC-9 cells expressing EGFR L858R/T790M/C797S mutant assessed as necrotic cells at 1 uM incubated for 48 hrs by Annexin V-FITC/PI staining based flow cytometric analysis (reference value: 0.540 %). The assay is classed as functional.
Assay [12] has as its system PC-9. The experiment in a line: Induction of apoptosis in human PC-9 cells expressing EGFR L858R/T790M/C797S mutant assessed as viable cells at 1 uM incubated for 48 hrs by Annexin V-FITC/PI staining based flow cytometric analysis (reference value: 98.9 %). It counts as functional.

Description for A-431: Cytotoxicity against human A-431 cells assessed as inhibition of cell proliferation incubated for 72 hrs by CCK8 assay
Description for HCC827: Cytotoxicity against human HCC827 cells expressing EGFR Del19 mutant assessed as inhibition of cell proliferation incubated for 72 hrs by CCK8 assay
Description for MCF7: Cytotoxicity against human MCF7 cells assessed as inhibition of cell proliferation incubated for 72 hrs by CCK8 assay
Description for NCI-H1975: Cytotoxicity against human NCI-H1975 cells expressing EGFR L858R/T790M mutant assessed as inhibition of cell proliferation incubated for 72 hrs by CCK8 assay

As to `C=CC(=O)Nc1cc(Nc2ncc(F)c(-c3ccc4cc(C(=O)NC)n(C(C)C)c4c3)n2)c(OC)cc1N1CCN(C(C)C)CC1`, the IC50 with NCI-H1975 stood at 474 nM; with PC-9 [1], 1030 nM; in the assay on PC-9 [2], 200 nM; in the assay with PC-9 [3], 2280 nM; in the assay on MCF7, 3840 nM; in the assay with A-431, 4920 nM. The compound also gave an IC50 in the assay with HCC827 of 2180 nM.

For the compound `C=CC(=O)Nc1cc(Nc2ncc(F)c(-c3ccc4cc(C(=O)NC)n(C(C)C)c4c3)n2)c(OC)cc1N1CCN(C)CC1`, the half-inhibitory concentration (IC50) is 1160 nM in the assay on NCI-H1975; 2090 nM in the assay on PC-9 [1]; 1110 nM with PC-9 [2]; 2190 nM with PC-9 [3]; > 10000 nM in the assay on MCF7; > 10000 nM in the assay with A-431. Also, the IC50 in the assay with HCC827 was found to be 1120 nM.

With `C=CC(=O)Nc1cc(Nc2ncc(F)c(-c3ccc4cc(C(=O)NC)n(C(C)C)c4c3)n2)ccc1N(C)CCN(C)C`, the IC50 stood at 44 nM in the assay with NCI-H1975; 53 nM in the assay with PC-9 [1]; 74 nM with PC-9 [2]; 48 nM in the assay with PC-9 [3]; 159 nM in the assay with MCF7; 1020 nM in the assay on A-431. Moreover, in the assay on HCC827, half-maximal inhibition (IC50) required 385 nM.

As for `C=CC(=O)Nc1cc(Nc2nccc(-c3cn(C)c4ccccc34)n2)c(OC)cc1N(C)CCN(C)C` [OSIMERTINIB], the IC50 came out at 15 nM in the assay on PC-9 [1], 2790 nM with PC-9 [3], 3520 nM in the assay on MCF7 and 16 nM with HCC827. Besides, the Activity is listed as 6.39% in the assay with PC-9 [4]; 4.73% in the assay with PC-9 [5]; 85.5% with PC-9 [6]; 3.39% in the assay on PC-9 [7]; 5.56% with PC-9 [9]; 4.73% with PC-9 [10]. The Activity in the assay on PC-9 [11] was 0.67%; with PC-9 [12], 89%. In addition, in the assay with PC-9 [8], the TGI was determined as 30.9%.

Regarding `C=CC(=O)Nc1cc(Nc2ncc(F)c(-c3ccc4cc(C(=O)NC)n(C(C)C)c4c3)n2)ccc1N1CCN(C(C)C)CC1`, the IC50 in the assay with NCI-H1975 is 150 nM; with PC-9 [1] it was 147 nM; with PC-9 [2], 138 nM; in the assay on PC-9 [3] it was 258 nM; in the assay on MCF7 it was 459 nM; in the assay with A-431, 46 nM. In the assay on HCC827, this compound showed an IC50 of 103 nM.

As to `C=CC(=O)Nc1cc(Nc2ncc(F)c(-c3ccc4cc(C(=O)N(C)C)n(C(C)C)c4c3)n2)ccc1N1CCN(C)CC1`, the IC50 worked out at 1180 nM with NCI-H1975; 1980 nM in the assay with PC-9 [1]; 2240 nM in the assay on PC-9 [2]; 1960 nM with PC-9 [3]; 4040 nM in the assay on MCF7; 4130 nM in the assay with A-431. Further, the IC50 with HCC827 came to 1290 nM.

As for `C=CC(=O)Nc1cc(Nc2ncc(F)c(-c3ccc4cc(C(=O)N(C)C)n(C(C)C)c4c3)n2)ccc1N1CCN(C(C)C)CC1`, the IC50 turned out to be 468 nM in the assay on NCI-H1975; 122 nM in the assay with PC-9 [1]; 380 nM in the assay on PC-9 [2]; 251 nM in the assay on PC-9 [3]; 875 nM in the assay with MCF7; 441 nM in the assay on A-431. In the assay with HCC827, this compound yielded an IC50 of 692 nM.

As a reminder, the IC50 is the concentration that inhibits the measured activity by half. A low value points to greater potency in that assay. By TGI is commonly meant how far tumour growth fell short of that in controls.
